The values below are quoted from earlier work in patent US20040241258A1, “Insect repellent for humans and animals” (priority 2003, published 2004).

For this data set the following is noted: in vivo.

Turning to `CCN(CC)C(=O)c1cccc(C)c1` [DEET, N, N-diethyl-meta-toulamide], the “time remaining in the blood stream after use” value is listed as 30 days.
